The structures appear in SMILES notation. Structures can show the parent of a compound that is named as a salt.

As usually defined, the inhibition is the change of the read-out against control, counted positive when it falls.

Chain of S. aureus GyrB ATPase (P0A0K8 whole entry): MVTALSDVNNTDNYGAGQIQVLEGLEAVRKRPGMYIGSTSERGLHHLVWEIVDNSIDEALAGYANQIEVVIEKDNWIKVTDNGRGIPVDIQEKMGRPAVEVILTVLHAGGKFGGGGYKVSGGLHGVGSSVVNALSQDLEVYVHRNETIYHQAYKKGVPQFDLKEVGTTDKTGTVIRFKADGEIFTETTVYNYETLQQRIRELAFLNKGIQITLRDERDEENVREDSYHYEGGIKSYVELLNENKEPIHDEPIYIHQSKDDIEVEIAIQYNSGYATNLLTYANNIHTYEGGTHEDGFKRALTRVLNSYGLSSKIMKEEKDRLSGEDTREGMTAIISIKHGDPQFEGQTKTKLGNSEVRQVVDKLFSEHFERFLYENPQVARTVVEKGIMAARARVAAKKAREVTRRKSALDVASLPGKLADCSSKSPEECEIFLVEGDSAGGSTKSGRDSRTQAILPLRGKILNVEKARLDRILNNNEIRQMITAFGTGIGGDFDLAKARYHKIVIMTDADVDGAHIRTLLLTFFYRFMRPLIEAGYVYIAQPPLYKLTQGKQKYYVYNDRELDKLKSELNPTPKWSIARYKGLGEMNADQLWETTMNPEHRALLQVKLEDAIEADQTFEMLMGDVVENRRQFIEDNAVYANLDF
Chain of S. aureus GyrB ATPase (P0AES4 whole entry, further chain): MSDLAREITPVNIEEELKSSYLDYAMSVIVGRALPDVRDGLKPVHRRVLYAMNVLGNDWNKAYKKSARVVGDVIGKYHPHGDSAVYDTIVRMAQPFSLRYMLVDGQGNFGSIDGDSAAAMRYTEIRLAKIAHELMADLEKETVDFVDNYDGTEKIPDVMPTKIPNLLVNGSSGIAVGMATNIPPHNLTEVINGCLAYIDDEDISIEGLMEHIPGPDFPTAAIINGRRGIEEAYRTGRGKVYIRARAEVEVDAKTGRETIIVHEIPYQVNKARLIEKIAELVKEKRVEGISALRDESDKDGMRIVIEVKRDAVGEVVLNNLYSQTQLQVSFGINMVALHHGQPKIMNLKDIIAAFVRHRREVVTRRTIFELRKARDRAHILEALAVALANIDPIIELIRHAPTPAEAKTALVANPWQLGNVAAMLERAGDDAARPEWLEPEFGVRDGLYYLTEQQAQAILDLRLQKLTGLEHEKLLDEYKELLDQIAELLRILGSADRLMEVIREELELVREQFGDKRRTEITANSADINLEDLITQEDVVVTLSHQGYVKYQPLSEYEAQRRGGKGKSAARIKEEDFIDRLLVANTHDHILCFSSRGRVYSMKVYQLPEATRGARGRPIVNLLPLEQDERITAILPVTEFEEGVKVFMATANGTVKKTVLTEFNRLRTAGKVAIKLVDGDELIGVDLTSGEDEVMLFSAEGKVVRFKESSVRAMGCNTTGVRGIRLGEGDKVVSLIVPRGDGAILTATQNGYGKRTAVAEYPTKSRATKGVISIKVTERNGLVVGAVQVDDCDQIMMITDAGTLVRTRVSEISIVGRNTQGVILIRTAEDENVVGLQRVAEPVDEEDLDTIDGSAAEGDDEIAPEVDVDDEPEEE

This assay addresses S. aureus GyrB ATPase (Staphylococcus aureus, UniProt P0A0K8). Kind of assay: S. aureus (SAU) GyrB ATPase inhibition, malachite green phosphate detection (E. coli GyrA + S. aureus GyrB). As to conditions: compound concentration of 1.0 μM unless otherwise noted; average value where assay was carried out more than once; read-out: S. aureus (SAU) GyrB ATPase % Inhibition. It counts as biochemical. As for the experimental part: Compounds were tested for inhibition of GyrB ATPase activity using an ammonium molybdate/malachite green-based phosphate detection assay (Lanzetta, P. A., L. J. Alvarez, P. S. Reinach, and O. A. Candia, 1979, 100: 95-97). Assays were performed in multiwell plates in 100 μl reactions containing: 50 mM Hepes buffer pH 7.5, 75 mM ammonium acetate, 8.0 mM magnesium chloride, 1.0 mM ethylenediaminetetraacetic acid, 5% glycerol, 2 mM 1,4-Dithio-DL-threitol, 400 nM bovine serum albumin, 5 μg/ml sheared salmon sperm DNA, 1.25 nM E. coli GyrA, 1.25 nM S. aureus GyrB, 500 μM ATP, and compound in dimethylsulfoxide. Reactions were quenched with 150 μl of ammonium molybdate/malachite green detection reagent containing 1.2 mM malachite green hydrochloride, 8.5 mM ammonium molybdate tetrahydrate, and 1 M hydrochloric acid. Plates were read in an absorbance plate reader at 650 nm and percent inhibition values were calculated using dimethylsulfoxide (2%)-containing reactions as 0% inhibition and novobiocin-containing (2 μM) reactions as 100% inhibition controls. Compound potency was based on IC50 measurements determined from reactions performed in the presence of 10 different compound concentrations.
For the compound `CCNC(=O)Nc1cc(-c2nc(C(F)(F)F)cs2)c(-c2cncc(-c3n[nH]c(=O)o3)n2)cn1` [Example 35, 1-ethyl-3-(5-(6-(5-oxo-4,5-dihydro-1,3,4-oxadiazol-2-yl)pyrazin-2-yl)-4-(4-(trifluoromethyl)thiazol-2-yl)pyridin-2-yl)urea], the inhibition at 1 µM was determined as 103%.

As to `CCNC(=O)Nc1cc(-c2nc(C(F)(F)F)cs2)c(-c2nc(-c3ncccn3)c(-c3n[nH]c(=O)o3)s2)cn1` [Example 36, 1-ethyl-3-(5-(5-(5-oxo-4,5-dihydro-1,3,4-oxadiazol-2-yl)-4-(pyrimidin-2-yl)thiazol-2-yl)-4-(4-(trifluoromethyl)thiazol-2-yl)pyridin-2-yl)urea], the inhibition at 1 µM came out at 107%. In the case of `CCNC(=O)Nc1cc(-c2nc(C(F)(F)F)cs2)c(-c2nc(-c3ncnn3C)c(-c3n[nH]c(=O)o3)s2)cn1` [Example 37, 1-ethyl-3-(5-(4-(1-mcthyl-1H-1,2,4-triazol-5-yl)-5-(5-oxo-4,5-dihydro-1,3,4-oxadiazol-2-yl)thiazol-2-yl)-4-(4-(trifluoromethyl)thiazol-2-yl)pyridin-2-yl)urea], the inhibition at 1 µM was 112%. Turning to `CCNC(=O)Nc1cc(-c2nnc(-c3ccncc3)o2)c(-c2cncc(-c3n[nH]c(=O)o3)c2)cn1` [Example 38, 1-ethyl-3-(5′-(5-oxo-4,5-dihydro-1,3,4-oxadiazol-2-yl)-4-(5-(pyridin-4-yl)-1,3,4-oxadiazol-2-yl)-3,3′-bipyridin-6-yl)urea], the inhibition at 1 µM came to 108%. On to `CCNC(=O)Nc1cc(-c2nc(-c3ccncc3)cs2)c(-c2cncc(-c3n[nH]c(=O)o3)c2)cn1` [Example 39, N-ethyl-N′-[5′-(5-oxo-4,5-dihydro-1,3,4-oxadiazol-2-yl)-4-(4-pyridin-4-yl-1,3-thiazol-2-yl)-3,3′-bipyridin-6-yl]urea], for which the inhibition at 1 µM stood at 102%. `CCCCOc1ncc(-c2cnc(NC(=O)NCC)cc2-c2nc(C(F)(F)F)cs2)cc1-c1n[nH]c(=O)o1` [Example 40, 1-(6′-butoxy-5′-(5-oxo-4,5-dihydro-1,3,4-oxadiazol-2-yl)-4-(4-(trifluoromethyl)thiazol-2-yl)-3,3′-bipyridin-6-yl)-3-ethylurea]: the inhibition at 1 µM was 117%. Take `CCCCOc1ncc(-c2cnc(NC(=O)NCC)cc2-c2nc(C(F)(F)F)cs2)cc1-c1nnc(C)o1` [Example 41]: the inhibition at 1 µM was 109%. Under `CC(C)NC(=O)Nc1cc(-c2nc(C(F)(F)F)cs2)c(-c2cncc(-c3n[nH]c(=O)o3)c2)cn1` [Example 42, 1-isopropyl-3-(5′-(5-oxo-4,5-dihydro-1,3,4-oxadiazol-2-yl)-4-(4-(trifluoromethyl)thiazol-2-yl)-3,3′-bipyridin-6-yl)urea] stands 106%; under `CCCNC(=O)Nc1cc(-c2nc(C(F)(F)F)cs2)c(-c2cncc(-c3n[nH]c(=O)o3)c2)cn1` [Example 44, 1-(5′-(5-oxo-4,5-dihydro-1,3,4-oxadiazol-2-yl)-4-(4-(trifluoromethyl)thiazol-2-yl)-3,3′-bipyridin-6-yl)-3-propylurea], 96%. Consider `O=C(Nc1cc(-c2nc(C(F)(F)F)cs2)c(-c2cncc(-c3n[nH]c(=O)o3)c2)cn1)NC1CC1` [Example 45, 1-cyclopropyl-3-(5′-(5-oxo-4,5-dihydro-1,3,4-oxadiazol-2-yl)-4-(4-(trifluoromethyl)thiazol-2-yl)-3,3′-bipyridin-6-yl)urea], for which the inhibition at 1 µM turned out to be 103%. On to `O=C(Nc1cc(-c2nc(C(F)(F)F)cs2)c(-c2cncc(-c3n[nH]c(=O)o3)c2)cn1)NC1CCCCC1` [Example 46, 1-cyclohexyl-3-(5′-(5-oxo-4,5-dihydro-1,3,4-oxadiazol-2-yl)-4-(4-(trifluoromethyl)thiazol-2-yl)-3,3′-bipyridin-6-yl)urea], for which the inhibition at 1 µM was -1%. Under `CCN(CC)C(=O)Nc1cc(-c2nc(C(F)(F)F)cs2)c(-c2cncc(-c3n[nH]c(=O)o3)c2)cn1` [Example 47, 1,1-diethyl-3-(5′-(5-oxo-4,5-dihydro-1,3,4-oxadiazol-2-yl)-4-(4-(trifluoromethyl)thiazol-2-yl)-3,3′-bipyridin-6-yl)urea] stands 72%; under `O=C(NCC1CC1)Nc1cc(-c2nc(C(F)(F)F)cs2)c(-c2cncc(-c3n[nH]c(=O)o3)c2)cn1` [Example 48, 1-(cyclopropylmethyl)-3-(5′-(5-oxo-4,5-dihydro-1,3,4-oxadiazol-2-yl)-4-(4-(trifluoromethyl)thiazol-2-yl)-3,3′-bipyridin-6-yl)urea], 95%.

Consider `O=C(NCC(F)(F)F)Nc1cc(-c2nc(C(F)(F)F)cs2)c(-c2cncc(-c3n[nH]c(=O)o3)c2)cn1` [Example 49, 1-(5′-(5-oxo-4,5-dihydro-1,3,4-oxadiazol-2-yl)-4-(4-(trifluoromethyl)thiazol-2-yl)-3,3′-bipyridin-6-yl)-3-(2,2,2-trifluoroethyl)urea], for which the inhibition at 1 µM was found to be 99%. Consider `O=C(NCC(F)F)Nc1cc(-c2nc(C(F)(F)F)cs2)c(-c2cncc(-c3n[nH]c(=O)o3)c2)cn1` [Example 50, 1-(2,2-difluoroethyl)-3-(5′-(5-oxo-4,5-dihydro-1,3,4-oxadiazol-2-yl)-4-(4-(trifluoromethyl)thiazol-2-yl)-3,3′-bipyridin-6-yl)urea], for which the inhibition at 1 µM worked out at 105%. As for `CCNC(=O)Nc1cc(-c2nc(C(F)(F)F)c(CNCCN3CCOCC3)s2)c(-c2cncc(-c3n[nH]c(=O)o3)c2)cn1` [Example 51, 1-ethyl-3-(5′-(5-hydroxy-1,3,4-oxadiazol-2-yl)-4-(5-((2-morpholinoethylamino)methyl)-4-(trifluoromethyl)thiazol-2-yl)-3,3′-bipyridin-6-yl)urea trihydrochloride], the inhibition at 1 µM was determined as 98%. On to `CCNC(=O)Nc1cc(-c2nc(C(F)(F)F)c(CNC3CCCCC3)s2)c(-c2cncc(-c3n[nH]c(=O)o3)c2)cn1` [Example 52, 1-(4-(5-((cyclohexylamino)methyl)-4-(trifluoromethyl)thiazol-2-yl)-5′-(5-hydroxy-1,3,4-oxadiazol-2-yl)-3,3′-bipyridin-6-yl)-3-ethylurea hydrochloride], for which the inhibition at 1 µM came to 108%. The result for `CCNC(=O)Nc1cc(-c2nc(C(F)(F)F)c(CNC3CCCC3)s2)c(-c2cncc(-c3n[nH]c(=O)o3)c2)cn1` [Example 53, 1-(4-(5-((cyclopentylamino)methyl)-4-(trifluoromethyl)thiazol-2-yl)-5′-(5-hydroxy-1,3,4-oxadiazol-2-yl)-3,3′-bipyridin-6-yl)-3-ethylurea hydrochloride] reads 109%. Take `CCNC(=O)Nc1cc(-c2nc(C(F)(F)F)c(CNCCOC)s2)c(-c2cncc(-c3nnc(C)o3)c2)cn1` [Example 54, 1-ethyl-3-(4-(5-((2-methoxyethylamino)methyl)-4-(trifluoromethyl)thiazol-2-yl)-5′-(5-methyl-1,3,4-oxadiazol-2-yl)-3,3′-bipyridin-6-yl)urea]: the inhibition at 1 µM was 97%.

`CCNC(=O)Nc1cc(-c2nc(C(F)(F)F)c(CNCCN3CCOCC3)s2)c(-c2cncc(-c3nnc(C)o3)c2)cn1` [Example 55, 1-ethyl-3-(5′-(5-methyl-1,3,4-oxadiazol-2-yl)-4-(5-((2-morpholinoethylamino)methyl)-4-(trifluoromethyl)thiazol-2-yl)-3,3′-bipyridin-6-yl)urea]: the inhibition at 1 µM was 96%.

Take `CCNC(=O)Nc1cc(-c2nc(C(F)(F)F)c(CNC3CCCCC3)s2)c(-c2cncc(-c3nnc(C)o3)c2)cn1` [Example 56, 1-(4-(5-((cyclohexylamino)methyl)-4-(trifluoromethyl)thiazol-2-yl)-5′-(5-methyl-1,3,4-oxadiazol-2-yl)-3,3′-bipyridin-6-yl)-3-ethylurea]: the inhibition at 1 µM was 96%.

For the compound `CCNC(=O)Nc1cc(-c2nc(C(F)(F)F)c(CNC3CCCC3)s2)c(-c2cncc(-c3nnc(C)o3)c2)cn1` [Example 57, 1-(4-(5-((cyclopentylamino)methyl)-4-(trifluoromethyl)thiazol-2-yl)-5′-(5-methyl-1,3,4-oxadiazol-2-yl)-3,3′-bipyridin-6-yl)-3-ethylurea], the inhibition at 1 µM is 96%.

Take `CCNC(=O)Nc1cc(-c2nc(C(F)(F)F)c(CNC3CCOCC3)s2)c(-c2cncc(-c3nnc(C)o3)c2)cn1` [Example 58, 1-ethyl-3-(5′-(5-methyl-1,3,4-oxadiazol-2-yl)-4-(5-((tetrahydro-2H-pyran-4-ylamino)methyl)-4-(trifluoromethyl)thiazol-2-yl)-3,3′-bipyridin-6-yl)urea]: the inhibition at 1 µM turned out to be 97%. Take `CCNC(=O)Nc1cc(-c2nc(C(F)(F)F)c(C(=O)NCCOC)s2)c(-c2cncc(-c3n[nH]c(=O)o3)c2)cn1` [Example 59, 2-(6-(3-ethylureido)-5′-(5-oxo-4,5-dihydro-1,3,4-oxadiazol-2-yl)-3,3′-bipyridin-4-yl)-N-(2-methoxyethyl)-4-(trifluoromethyl)thiazole-5-carboxamide]: the inhibition at 1 µM stood at 98%. For the compound `CCNC(=O)Nc1cc(-c2nc(C(F)(F)F)c(C(=O)NCCOC)s2)c(-c2cncc(-c3nnc(C)o3)c2)cn1` [Example 60, 2-(6-(3-ethylureido)-5′-(5-methyl-1,3,4-oxadiazol-2-yl)-3,3′-bipyridin-4-yl)-N-(2-methoxyethyl)-4-(trifluoromethyl)thiazole-5-carboxamide], the inhibition at 1 µM was 92%.

The values are drawn from US20120101100A1 (priority 2008, published 2012).
